Literature values in US8828415B2, “Microcapsules with acetylene carbamide-polyurea polymers and formulations thereof for controlled release” (priority 2006, dated 2014).

Experiments:
[1] = tested on: guinea pigs
[2] = tested on: mice; conditions: for 4 h
[3] = for cancer (Ames test): MSDS of Sigma-Aldrich and CYTEC
[4] = tested on: humans

SMILES	pulmonary sensitization in guinea pigs [1]	acute inhalation toxicity (LC50) [2]	cancer (Ames test) [3]	affects respiratory system in humans at long term (3 y) [4]	cancer: CMR category ([3]; MSDS)	cancer: IARC classification ([3]; MSDS)
CC(C)(N=C=O)c1cccc(C(C)(C)N=C=O)c1 [TMXDI, alpha-, alpha-, alpha-, alpha-tetramethyl xylylene diisocyanate]	no	27 ppm for 4 h -	not carcinogenic	no	–	–
Cc1ccc(N=C=O)cc1N=C=O [TDI, 2,4-toluenediisocyanate]	Yes	10 ppm for 4 h - mice	carcinogenic (Ames test)	Yes	CMR Cat. Carcinogen 3	IARC carrcinogen 2B
